According to PMC8632500, “Identification of Conserved and Divergent Strigolactone Receptors in Sugarcane Reveals a Key Residue Crucial for Plant Branching Control” (Frontiers in Plant Science, 2021):
Positions count from the first letter of the chain named.

Key:
Assay in all cases: yeast two-hybrid, hormone-induced D14-MAX2 interaction
Format in all cases: cell-based
[1] = molecular target: T1, SsD14a (with SsMAX2) (Saccharum spontaneum, UniProt Z9T3V1O2D3); settings: 5 uM rac-GR24 versus DMSO; 30 °C, 4 days; partner SsMAX2
T1 construct: full-length CDS as GAL4-BD fusion (pGBKT7), SsMAX2 as GAL4-AD fusion (pGADT7), yeast AH109; 7F5W is apo SsD14a lacking residues 1-49; with F-box protein MAX2 homolog (D3)
T1 sequence (Z9T3V1O2D3 1-316): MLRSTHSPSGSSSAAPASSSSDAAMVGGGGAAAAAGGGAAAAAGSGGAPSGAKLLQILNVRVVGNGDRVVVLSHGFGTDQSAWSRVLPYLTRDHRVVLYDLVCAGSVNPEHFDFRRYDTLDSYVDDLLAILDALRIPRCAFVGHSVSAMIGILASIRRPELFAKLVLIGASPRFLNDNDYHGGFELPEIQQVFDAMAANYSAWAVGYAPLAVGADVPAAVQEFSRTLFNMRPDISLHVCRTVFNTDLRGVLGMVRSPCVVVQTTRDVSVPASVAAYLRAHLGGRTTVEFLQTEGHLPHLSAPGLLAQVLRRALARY

[2] = molecular target: T2, AtD14 (with SsMAX2) (Arabidopsis thaliana, UniProt Q9SQR3, R262P); settings: 5 uM rac-GR24 versus DMSO; 30 °C, 4 days; partner SsMAX2
T2 construct: gene D14; GAL4-BD fusion, with Saccharum spontaneum MAX2 as GAL4-AD fusion, yeast AH109; with F-box protein MAX2 homolog (D3), Saccharum spontaneum
T2 sequence (Q9SQR3 1-267 R262P): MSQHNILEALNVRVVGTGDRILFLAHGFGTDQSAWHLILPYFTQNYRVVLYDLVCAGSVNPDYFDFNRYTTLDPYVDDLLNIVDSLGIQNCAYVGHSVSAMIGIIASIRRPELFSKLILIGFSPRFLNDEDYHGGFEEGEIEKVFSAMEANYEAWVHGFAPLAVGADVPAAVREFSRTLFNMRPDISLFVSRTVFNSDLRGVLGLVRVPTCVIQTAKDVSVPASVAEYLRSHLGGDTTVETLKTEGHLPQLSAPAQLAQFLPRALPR

[3] = molecular target: T3, OsD14ΔN (with SsMAX2) (Oryza sativa, UniProt Q10QA5); settings: 5 uM rac-GR24 versus DMSO; 30 °C, 4 days; partner SsMAX2
T3 construct: gene D14; N-terminally truncated (printed OsD14ΔN53; R261/R312 offset implies 51 residues removed), GAL4-BD fusion, with Saccharum spontaneum MAX2 as GAL4-AD fusion, yeast AH109; with F-box protein MAX2 homolog (D3), Saccharum spontaneum
T3 sequence (Q10QA5 54-318): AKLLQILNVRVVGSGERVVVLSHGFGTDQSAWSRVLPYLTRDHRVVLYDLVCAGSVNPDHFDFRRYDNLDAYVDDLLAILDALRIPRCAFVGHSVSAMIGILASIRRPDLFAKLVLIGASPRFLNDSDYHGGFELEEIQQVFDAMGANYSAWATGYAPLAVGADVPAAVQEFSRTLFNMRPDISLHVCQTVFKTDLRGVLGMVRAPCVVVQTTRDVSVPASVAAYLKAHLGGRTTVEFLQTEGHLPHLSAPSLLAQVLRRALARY

[4] = molecular target: T4, OsD14ΔN (with SsMAX2) (Oryza sativa, UniProt Q10QA5, R312P); settings: 5 uM rac-GR24 versus DMSO; 30 °C, 4 days; partner SsMAX2; R312P in full-length count
T4 construct: gene D14; N-terminally truncated (printed OsD14ΔN53; R261/R312 offset implies 51 residues removed), GAL4-BD fusion, with Saccharum spontaneum MAX2 as GAL4-AD fusion, yeast AH109; with F-box protein MAX2 homolog (D3), Saccharum spontaneum
T4 sequence (Q10QA5 54-318 R312P): T3 sequence (Q10QA5 54-318) with R259P

[5] = molecular target: T5, AtD14 (with SsMAX2) (Arabidopsis thaliana, UniProt Q9SQR3); settings: 5 uM rac-GR24 versus DMSO; 30 °C, 4 days; partner SsMAX2
T5 construct: gene D14; GAL4-BD fusion, with Saccharum spontaneum MAX2 as GAL4-AD fusion, yeast AH109; with F-box protein MAX2 homolog (D3), Saccharum spontaneum
T5 sequence (Q9SQR3 1-267): T2 sequence (Q9SQR3 1-267 R262P) with P262R

[6] = molecular target: T6, SsD14b (with SsMAX2) (Saccharum spontaneum, UniProt Z9BCY6HYO0); settings: 5 uM rac-GR24 versus DMSO; 30 °C, 4 days; partner SsMAX2
T6 construct: full-length CDS as GAL4-BD fusion (pGBKT7), SsMAX2 as GAL4-AD fusion (pGADT7), yeast AH109; with F-box protein MAX2 homolog (D3)
T6 sequence (Z9BCY6HYO0 1-310): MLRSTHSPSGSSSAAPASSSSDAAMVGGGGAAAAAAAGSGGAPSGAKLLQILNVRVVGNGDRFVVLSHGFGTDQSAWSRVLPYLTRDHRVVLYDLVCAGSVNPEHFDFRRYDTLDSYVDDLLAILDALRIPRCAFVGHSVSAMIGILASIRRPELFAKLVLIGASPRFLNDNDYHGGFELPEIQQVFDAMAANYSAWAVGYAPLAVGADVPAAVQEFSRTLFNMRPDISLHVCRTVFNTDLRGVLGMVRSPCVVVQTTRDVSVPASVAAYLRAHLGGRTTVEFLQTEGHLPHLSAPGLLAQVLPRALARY

CC1=CC(OC=C2C(=O)OC3c4ccccc4CC23)OC1=O (racemic) [rac-GR24]
yeast two-hybrid, hormone-induced D14-MAX2 interaction [1]: SL induced both SsD14a and SsD14b to interact with SsMAX2 in yeast
yeast two-hybrid, hormone-induced D14-MAX2 interaction [2]: AtD14R262P and OsD14ΔNR261P, like wild-type proteins, still have strong hormone-dependent interactions with SsMAX2
yeast two-hybrid, hormone-induced D14-MAX2 interaction [3]: like wild-type proteins, still have strong hormone-dependent interactions with SsMAX2
yeast two-hybrid, hormone-induced D14-MAX2 interaction [4]: AtD14R262P and OsD14ΔNR261P, like wild-type proteins, still have strong hormone-dependent interactions with SsMAX2
yeast two-hybrid, hormone-induced D14-MAX2 interaction [5]: SsMAX2 interacted with AtD14 in an SL-dependent manner
yeast two-hybrid, hormone-induced D14-MAX2 interaction [6]: SL induced both SsD14a and SsD14b to interact with SsMAX2 in yeast
